From ChEMBL document CHEMBL3885881, “DrugMatrix”

Species: Rattus norvegicus
Assay: DrugMatrix - Regimen: Daily Repeat
Format: toxicity, organism-based, Sprague-Dawley
Parameters: regimen Daily Repeat, gender Male, age 6-8 weeks
Conditions: in vivo, po, route oral GAVAGE, vehicle .5 % CMC; for BASOPHIL / EOSINOPHIL / ERYTHROCYTE COUNT / HEMATOCRIT / HEMOGLOBIN / LEUKOCYTE COUNT / LYMPHOCYTE / MEAN CORPUSCULAR HEMOGLOBIN / MEAN CORPUSCULAR HEMOGLOBIN CONCENTRATION / MEAN CORPUSCULAR VOLUME / MONOCYTE / NEUTROPHIL / PLATELET COUNT: tissue Blood; for ALANINE AMINOTRANSFERASE / ALBUMIN / ALKALINE PHOSPHATASE / ASPARTATE AMINOTRANSFERASE / BLOOD UREA NITROGEN / CHLORIDE / CHOLESTEROL / CREATINE PHOSPHOKINASE / CREATININE / GLUCOSE / PHOSPHORUS / POTASSIUM / SODIUM / TOTAL BILIRUBIN / TOTAL PROTEIN: tissue Plasma
[1] = 0 mg/kg, 72 h, dose level Control, time 3 day
[2] = 0 mg/kg, 120 h, dose level Control, time 5 day
[3] = 300 mg/kg, 72 h, dose level Low, time 3 day
[4] = 300 mg/kg, 120 h, dose level Low, time 5 day
[5] = 1500 mg/kg, 72 h, dose level High, time 3 day
[6] = 1500 mg/kg, 120 h, dose level High, time 5 day

## O=C1CCc2cc(OCCCCc3nnnn3C3CCCCC3)ccc2N1 [CILOSTAZOL]
[1]
  BASOPHIL: 0.68%
  EOSINOPHIL: 0.46%
  ERYTHROCYTE COUNT: 7.15 x10E6/uL
  HEMATOCRIT: 45.44%
  HEMOGLOBIN: 14.1 G/DL
  LEUKOCYTE COUNT: 9.78 x10E3/uL
  LYMPHOCYTE: 84.44%
  MEAN CORPUSCULAR HEMOGLOBIN: 19.72 pg
  MEAN CORPUSCULAR HEMOGLOBIN CONCENTRATION: 31 G/DL
  MEAN CORPUSCULAR VOLUME: 63.66 fL
  MONOCYTE: 2.14%
  NEUTROPHIL: 11.16%
  PLATELET COUNT: 1378.2 x10E3/uL
  ALANINE AMINOTRANSFERASE: 42.33 u/L
  ALBUMIN: 3.8 G/DL
  ALKALINE PHOSPHATASE: 388.17 u/L
  ASPARTATE AMINOTRANSFERASE: 68 u/L
  BLOOD UREA NITROGEN: 16.17 mg/dL
  CHLORIDE: 96.67 MEQ/L
  CHOLESTEROL: 71 mg/dL
  CREATINE PHOSPHOKINASE: 156.17 u/L
  CREATININE: 0.57 mg/dL
  GLUCOSE: 193.67 mg/dL
  PHOSPHORUS: 11.43 mg/dL
  POTASSIUM: 7 MEQ/L
  SODIUM: 140.33 MEQ/L
  TOTAL BILIRUBIN: 0.48 mg/dL
  TOTAL PROTEIN: 6.8 G/DL
[2]
  BASOPHIL: 1.47%
  EOSINOPHIL: 1%
  ERYTHROCYTE COUNT: 7.12 x10E6/uL
  HEMATOCRIT: 45.47%
  HEMOGLOBIN: 14.1 G/DL
  LEUKOCYTE COUNT: 11.38 x10E3/uL
  LYMPHOCYTE: 82.57%
  MEAN CORPUSCULAR HEMOGLOBIN: 19.82 pg
  MEAN CORPUSCULAR HEMOGLOBIN CONCENTRATION: 31.02 G/DL
  MEAN CORPUSCULAR VOLUME: 63.88 fL
  MONOCYTE: 2.2%
  NEUTROPHIL: 11.97%
  PLATELET COUNT: 1267 x10E3/uL
  ALANINE AMINOTRANSFERASE: 38 u/L
  ALBUMIN: 3.72 G/DL
  ALKALINE PHOSPHATASE: 391 u/L
  ASPARTATE AMINOTRANSFERASE: 65.83 u/L
  BLOOD UREA NITROGEN: 14.17 mg/dL
  CHLORIDE: 107.67 MEQ/L
  CHOLESTEROL: 61 mg/dL
  CREATINE PHOSPHOKINASE: 148.33 u/L
  CREATININE: 0.57 mg/dL
  GLUCOSE: 177.17 mg/dL
  PHOSPHORUS: 12.07 mg/dL
  POTASSIUM: 7.2 MEQ/L
  SODIUM: 151.5 MEQ/L
  TOTAL BILIRUBIN: 0.58 mg/dL
  TOTAL PROTEIN: 6.72 G/DL
[3]
  BASOPHIL: 0.4%
  EOSINOPHIL: 0.5%
  ERYTHROCYTE COUNT: 6.67 x10E6/uL
  HEMATOCRIT: 43%
  HEMOGLOBIN: 13.6 G/DL
  LEUKOCYTE COUNT: 12.31 x10E3/uL
  LYMPHOCYTE: 81.4%
  MEAN CORPUSCULAR HEMOGLOBIN: 20.4 pg
  MEAN CORPUSCULAR HEMOGLOBIN CONCENTRATION: 31.6 G/DL
  MEAN CORPUSCULAR VOLUME: 64.55 fL
  MONOCYTE: 2.4%
  NEUTROPHIL: 14%
  PLATELET COUNT: 1378 x10E3/uL
  ALANINE AMINOTRANSFERASE: 40.67 u/L
  ALBUMIN: 3.6 G/DL
  ALKALINE PHOSPHATASE: 331.33 u/L
  ASPARTATE AMINOTRANSFERASE: 59 u/L
  BLOOD UREA NITROGEN: 14.67 mg/dL
  CHLORIDE: 96 MEQ/L
  CHOLESTEROL: 75.33 mg/dL
  CREATINE PHOSPHOKINASE: 120.33 u/L
  CREATININE: 0.53 mg/dL
  GLUCOSE: 178.33 mg/dL
  PHOSPHORUS: 11.33 mg/dL
  POTASSIUM: 6.4 MEQ/L
  SODIUM: 141 MEQ/L
  TOTAL BILIRUBIN: 0.33 mg/dL
  TOTAL PROTEIN: 6.43 G/DL
[4]
  BASOPHIL: 1.17%
  EOSINOPHIL: 0.37%
  ERYTHROCYTE COUNT: 7.17 x10E6/uL
  HEMATOCRIT: 46.5%
  HEMOGLOBIN: 14.43 G/DL
  LEUKOCYTE COUNT: 13.79 x10E3/uL
  LYMPHOCYTE: 85.57%
  MEAN CORPUSCULAR HEMOGLOBIN: 20.2 pg
  MEAN CORPUSCULAR HEMOGLOBIN CONCENTRATION: 31.07 G/DL
  MEAN CORPUSCULAR VOLUME: 64.9 fL
  MONOCYTE: 2.3%
  NEUTROPHIL: 9.6%
  PLATELET COUNT: 1545 x10E3/uL
  ALANINE AMINOTRANSFERASE: 41 u/L
  ALBUMIN: 3.77 G/DL
  ALKALINE PHOSPHATASE: 365.67 u/L
  ASPARTATE AMINOTRANSFERASE: 63 u/L
  BLOOD UREA NITROGEN: 14.67 mg/dL
  CHLORIDE: 106.67 MEQ/L
  CHOLESTEROL: 67.33 mg/dL
  CREATINE PHOSPHOKINASE: 135 u/L
  CREATININE: 0.67 mg/dL
  GLUCOSE: 167 mg/dL
  PHOSPHORUS: 12.53 mg/dL
  POTASSIUM: 7.53 MEQ/L
  SODIUM: 151.33 MEQ/L
  TOTAL BILIRUBIN: 0.43 mg/dL
  TOTAL PROTEIN: 6.77 G/DL
[5]
  BASOPHIL: 0.53%
  EOSINOPHIL: 0.27%
  ERYTHROCYTE COUNT: 6.95 x10E6/uL
  HEMATOCRIT: 45.23%
  HEMOGLOBIN: 14.2 G/DL
  LEUKOCYTE COUNT: 13.97 x10E3/uL
  LYMPHOCYTE: 82.9%
  MEAN CORPUSCULAR HEMOGLOBIN: 20.43 pg
  MEAN CORPUSCULAR HEMOGLOBIN CONCENTRATION: 31.4 G/DL
  MEAN CORPUSCULAR VOLUME: 65.13 fL
  MONOCYTE: 2.43%
  NEUTROPHIL: 13.1%
  PLATELET COUNT: 1348.33 x10E3/uL
  ALANINE AMINOTRANSFERASE: 34.67 u/L
  ALBUMIN: 3.77 G/DL
  ALKALINE PHOSPHATASE: 340.33 u/L
  ASPARTATE AMINOTRANSFERASE: 60.33 u/L
  BLOOD UREA NITROGEN: 12 mg/dL
  CHLORIDE: 95 MEQ/L
  CHOLESTEROL: 65.33 mg/dL
  CREATINE PHOSPHOKINASE: 141 u/L
  CREATININE: 0.5 mg/dL
  GLUCOSE: 178.33 mg/dL
  PHOSPHORUS: 11.9 mg/dL
  POTASSIUM: 6.77 MEQ/L
  SODIUM: 140.33 MEQ/L
  TOTAL BILIRUBIN: 0.43 mg/dL
  TOTAL PROTEIN: 6.67 G/DL
[6]
  BASOPHIL: 0.83%
  EOSINOPHIL: 0.37%
  ERYTHROCYTE COUNT: 7 x10E6/uL
  HEMATOCRIT: 45.1%
  HEMOGLOBIN: 13.87 G/DL
  LEUKOCYTE COUNT: 10.98 x10E3/uL
  LYMPHOCYTE: 80.03%
  MEAN CORPUSCULAR HEMOGLOBIN: 19.8 pg
  MEAN CORPUSCULAR HEMOGLOBIN CONCENTRATION: 30.67 G/DL
  MEAN CORPUSCULAR VOLUME: 64.47 fL
  MONOCYTE: 2.53%
  NEUTROPHIL: 15.27%
  PLATELET COUNT: 1161 x10E3/uL
  ALANINE AMINOTRANSFERASE: 45 u/L
  ALBUMIN: 3.67 G/DL
  ALKALINE PHOSPHATASE: 377 u/L
  ASPARTATE AMINOTRANSFERASE: 66.33 u/L
  BLOOD UREA NITROGEN: 12 mg/dL
  CHLORIDE: 106.67 MEQ/L
  CHOLESTEROL: 66.67 mg/dL
  CREATINE PHOSPHOKINASE: 130 u/L
  CREATININE: 0.6 mg/dL
  GLUCOSE: 184.33 mg/dL
  PHOSPHORUS: 12.83 mg/dL
  POTASSIUM: 7.27 MEQ/L
  SODIUM: 151.33 MEQ/L
  TOTAL BILIRUBIN: 0.4 mg/dL
  TOTAL PROTEIN: 6.6 G/DL
